From patent US12016948B2, “Micromotors and nanomotors for gastrointestinal diagnosis and treatment applications” (The Regents of the University of California, priority 2017, dated 2024) come the findings set out here.

SMILES strings stand for the structures. Values after ≈ are worked out from the molar mass of the structure shown.

In this experiment the test system is H. pylori Sydney strain 1 (HPSS1). Briefly: In vitro bactericidal activity against H. pylori. It counts as cell-based. As to conditions: Helicobacter pylori; kills 3 logs (99.9%) of bacteria; samples pretreated in 0.1 N HCl 1 h; 24 h incubation; read-out: minimal bactericidal concentration (MBC). Here is the method: To mimic the gastric environment, for example, samples were treated in 0.1 N HCl for 1 h prior to incubation with bacteria. This also ensured the dissolution of micromotors and consecutive drug release. […] Specifically, it was determined that the minimal bactericidal concentration (MBC) values of the samples, defined as the minimal concentration of an antimicrobial agent that kills 3 logs (99.9%) of the bacteria. […] Moreover, bare Mg-based micromotors with corresponding amount of motors were used as negative controls. […] Overall, FIG. 13D verifies that the activity of the loaded drug was not compromised compared to free drug. The example findings validate the potential use of these drug-loaded micromotors for therapeutic applications. In Vitro Anti-H. pylori Activity. H. pylori Sydney strain 1 (HPSS1) was cultured from frozen stock and routinely maintained on Columbia agar supplemented with 5% (vol/vol) laked horse blood at 37° C. under microaerobic conditions (e.g., 10% CO2, 85% N2, and 5% 02). For example, broth cultures of H. pylori were prepared by subculturing fresh colonies from agar plates into Brain heart infusion (BHI) supplemented with 5% fetal bovine serum (FBS) and incubated overnight at 37° C. under microaerobic conditions with moderate reciprocal shaking. […] The plates were cultured for 4 days before the colony-forming unit (CFU) of H. pylori was quantified. […]

Turning to `CC[C@H]1OC(=O)[C@H](C)[C@@H](O[C@H]2C[C@@](C)(OC)[C@@H](O)[C@H](C)O2)[C@H](C)[C@@H](O[C@@H]2O[C@H](C)C[C@H](N(C)C)[C@H]2O)[C@](C)(OC)C[C@@H](C)C(=O)[C@H](C)[C@@H](O)[C@]1(C)O` [free CLR, clarithromycin], the MBC was determined as 0.25 µg/mL (≈ 0.334 µM).
